Counter-ions that a name gives are not always drawn. Like-named read-outs stand apart in the source and are kept apart here.

Experiment [1] deals with T1, 5-HT receptor that has the characteristics of a 5-HT1C receptor (Rattus norvegicus, UniProt P30994).
T1 construct: from tissue; host or cells: rat stomach fundus strips
Kind of experiment: Rat stomach fundus: 5-HT1C antagonist action (inhibition of 5-HT-induced contractions). The following applies: rat stomach strips; test drug 10^-6 M for 30 mins; 5-HT dose-response; read-out: apparent dissociation constant, KB. The procedure:
5-Hydroxytryptamine (5-HT) induces contractions of the rat stomach fundus through a 5-HT receptor that has the characteristics of a 5-HT1C receptor (Blackburn et al, 1990).
Rat stomach strips (6×4 mm) were suspended under a 4 g tension in 5 ml baths containing Tyrode solution, gassed with a mixture of 95% O2 /5% CO2. After a 1 hour equilibration period, two dose response curves were constructed to 5-HT (final concentrations, 10^-9 to 3×10^-6 M). Test drugs were then incubated at a final concentration of 10^-6 M for 30 mins and another dose-response curve constructed to 5-HT. The apparent dissociation constant of a test drug, KB, can be calculated from the equation where [formula] where B=concentration of the test drug and DR=the dose ratio (the factor by which the concentration of the agonist has to be increased in the presence of the test drug to obtain an identical effect observed in the absence of the test drug).

The next experiment concerns the target T2, 5-HT1C binding site (Sus scrofa, UniProt K7GSR7).
T2 construct: Pooled pig choroid plexi were homogenised; from tissue; host or cells: pig choroid plexus membranes
T2 sequence (K7GSR7 1-457): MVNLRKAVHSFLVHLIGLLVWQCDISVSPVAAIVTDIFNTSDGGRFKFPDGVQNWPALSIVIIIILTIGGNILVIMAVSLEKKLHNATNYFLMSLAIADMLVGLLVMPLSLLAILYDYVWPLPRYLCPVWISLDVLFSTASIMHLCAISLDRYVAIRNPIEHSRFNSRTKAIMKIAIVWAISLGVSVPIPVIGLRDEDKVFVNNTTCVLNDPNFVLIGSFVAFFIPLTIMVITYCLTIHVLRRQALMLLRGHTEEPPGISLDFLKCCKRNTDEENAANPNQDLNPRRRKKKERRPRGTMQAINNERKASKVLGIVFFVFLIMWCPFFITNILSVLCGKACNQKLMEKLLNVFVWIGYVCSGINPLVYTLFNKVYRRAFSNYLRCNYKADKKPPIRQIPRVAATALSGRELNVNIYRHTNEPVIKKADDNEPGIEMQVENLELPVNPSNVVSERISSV
Kind of experiment: [^3 H]-mesulergine binding to pig choroid plexus membranes in vitro. The text has this: [^3 H]-mesulergine binding to pig choroid plexus membranes in vitro
(Curzon and Kennett, 1990; Fozard and Gray, 1989) and Alzheimer's Disease (Lawlor, 1989, J. Arch. Gen. Psychiat. Vol. 46 p.542).
The affinity of test drugs for the 5-HT1C binding site can be determined by assessing their ability to displace [^3 H]-mesulergine from 5-HT1C binding sites in pig choroid plexus membranes. The method employed was similar to that of Pazos et al, 1984.
Pooled pig choroid plexi were homogenised in 20 vols of Tris HCl buffer (pH7.4) (containing 4 mM CaCl2 and 0.01% ascorbic acid) and centrifuged at 50,000 g for 15 rain at 4° C. The supernatant was removed and re-centrifuged. This was repeated a further two times with the incubation of the homogenate (37° C. for 15 min) before the final centrifugation. The final pellet was resuspended in 20 vols of buffer and stored at -70° C. until use.
The tissue suspension (50 μl) was incubated with [^3 H]-mesulergine (2 nM) in Tris HCl buffer (pH7.4) at 37° C. (containing 0.01% ascorbic acid, 4 mM CaCl2) and 3×10^-8 M spiperone for 30 minutes. Non-specific binding was measured in the presence of mianserin (10^-6 M). Six concentrations of test drug (10^-9 to 10^-4 M final concentration) were added in a volume of 50 μl. The total assay volume was 500 μl. Incubation was stopped by rapid filtration using a Skatron cell harvester and radioactivity measured by liquid scintillation spectrometry. The IC50 values were determined and the pKi (the negative logarithm of the inhibition constant) calculated from the Cheng Prusoff equation where [formula] wherein: Ki =inhibition constant.
C=concentration of [^3 H]-mesulergine
Kd=Affinity of mesulergine for 5-HT1C binding sites.
Curzon, G. A. and Kennett, G. A. (1990). TIPS, Vol. 11, 181-182. Fozard, J. R. and Gray, J. A. (1989). TIPS, Vol. 10, 307-309. Pazos, A. et al. (1984). Eur. J. Pharmacol., 106, 531-538.

Experiment [2] deals with rat stomach fundus serotonin receptor. The following applies: P. Fludzinski et. al., J. Med. Chem. 1986 29 2415-2418; cited from earlier work.
A short description of experiment [3]: Social Interaction Test (potential anxiolytic properties). The format is in vivo, rat. The following applies: male rats; p.o. 1 h pretest; doses of 2-40 mg/kg. The text has this:
Potential anxiolytic properties have been evaluated using the social interaction test based on that described by File (1980 J. Neurosci. Meth., 2, 219). Active social interaction between male rats is usually quantitated by counting interactive behaviours such as following, grooming, sniffing, climbing over or under, biting, mounting and boxing. This behaviour is supressed when the rats encounter each other in an environment which is novel and brightly lit. Under these circumstances anxiolytic drugs will enhance the level of social interaction.
Rats were housed in groups of 8 in a holding room adjacent to the experimental chamber for 8 days. They were then housed singly in the same room for 3 days prior to the experimental day. On the experimental day rats were injected p.o. 1 h pretest with vehicle or drug in pairs at 15 min intervals beginning at 10.00 am. 60 Mins later they were placed with a weight matched pair mate (encountered for the first time) in the social interaction box in a separate room. The box was made of while perspex 54×37×26 cm with no lid. The floor was divided into 24 equal squares and the cage was brightly lit. Active social interaction was scored blind over the next 15 min by remote video monitoring to give total interaction scores. The number of squares crossed by each rat was also scored and summed. […]

The nature of experiment [4]: Geller-Seifter Procedure (potential anxiolytic properties). It is filed as in vivo, rat. As to conditions: rats; 30 min before testing; dose levels in the range 5-40 mg/kg p.o. Here is the method:
Potential anxiolytic properties are evaluated using the Geller-Seifter procedure based on that originally described by Geller and Seifter, (1960) Psychopharmacologia, 1, 482-492.
Rats are trained on a variable interval 30 sec schedule (VI30) to press a lever in order to obtain food reward. The 5 min sessions of the VI30 schedule alternate with 2-5 min of a schedule (FR5) in which every 5th lever press is followed by presentation of a food pellet paired with a 0.5 sec mild footshock. The total study lasts approximately 30 mins. Rats typically respond with high rates of lever pressing under the VI30 schedule and low response rates under the FR5 `conflict` session. Anxiolytic drugs increase the suppressed response rates of rats in a `conflict` session.
Drugs are administered intraperitoneally or orally to groups of 3-8 rats 30 min before testing.
The results are expressed as the percentage increase in the square root of the total number of lever presses in the FR5 `conflict` session. Square root transformation is necessary to normalise the data for statistical analysis using parametric methods.

T1 sequence (P30994 whole entry): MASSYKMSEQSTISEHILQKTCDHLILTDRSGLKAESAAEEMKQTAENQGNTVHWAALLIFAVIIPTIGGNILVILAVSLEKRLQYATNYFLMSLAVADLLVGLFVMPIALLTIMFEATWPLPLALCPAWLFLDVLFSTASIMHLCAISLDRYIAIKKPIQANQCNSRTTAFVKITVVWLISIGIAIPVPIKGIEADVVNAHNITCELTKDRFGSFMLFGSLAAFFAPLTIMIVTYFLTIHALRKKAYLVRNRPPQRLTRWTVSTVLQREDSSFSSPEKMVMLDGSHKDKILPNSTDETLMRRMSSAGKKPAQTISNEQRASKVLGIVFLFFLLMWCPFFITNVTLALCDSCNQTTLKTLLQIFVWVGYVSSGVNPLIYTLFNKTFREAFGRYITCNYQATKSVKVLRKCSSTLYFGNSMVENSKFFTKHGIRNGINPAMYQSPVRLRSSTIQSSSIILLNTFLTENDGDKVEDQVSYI

Consider `Cc1c(C)n(C)c2ccc(NC(=O)Nc3cccnc3)cc12` [E3, N-(1,2,3-Trimethyl-1H-indol-5-yl)-N'-(3-pyridyl)urea hydrochloride], for which the Kb in experiment [1] came to 0.025 µM. Further, the Ki on 5-HT1C binding site was 0.2 µM.

Turning to `CCCn1ccc2cc(NC(=O)Nc3cccnc3)ccc21` [E4, N-(1-Propyl-1H-indol-5-yl)-N'-(3-pyridyl)urea oxalate], the antagonist dissociation constant (Kb) in experiment [1] is 0.4 µM. In addition, on 5-HT1C binding site, the Ki is 0.2 µM.

Consider `Cn1ccc2c(NC(=O)Nc3cccnc3)cccc21` [E5, N-(1-Methyl-1H-indol-4-yl)-N'-(3-pyridyl)urea hydrochloride], for which the Kb in experiment [1] was found to be 0.25 µM. Besides, on 5-HT1C binding site, the Ki was 0.2 µM.

For the compound `CCc1c(C)n(C)c2ccc(NC(=O)Nc3cccc(C(F)(F)F)c3)cc12` [N-(1,2-dimethyl-3-ethyl-1H-indol-5-yl)-N'-(3-trifluoromethylphenyl)urea], in experiment [2], the “selectivity for the rat stomach fundus serotonin receptor” value is “shows selectivity for the rat stomach fundus serotonin receptor”.

In the case of `Cn1ccc2ccc(NC(=O)Nc3cccnc3)cc21` [E6, N-(1-Methyl-1H-indol-6-yl)-N'-(3-pyridyl)urea hydrochloride], the Kb in experiment [1] is 0.17 µM. For the same compound, on 5-HT1C binding site, the Ki was 0.316 µM.

For the compound `Cl.Cn1ccc2cc(NC(=O)Nc3cccnc3)ccc21` [E2, N-(1-Methyl-1H-indol-5-yl)-N'-(3-pyridyl)urea hydrochloride], the Kb in experiment [1] was found to be 0.1 µM. The Ki on 5-HT1C binding site ([^3 H]-mesulergine 2 nM, pig choroid plexus membranes, 3×10^-8 M spiperone, pH7.4, 37° C., 30 minutes, pKi from IC50 by Cheng Prusoff equation, read-out: [^3 ]-Mesulergine pKi (converted)) was 0.158 µM. Also, the social interaction entry in experiment [3] was “significant increase in social interaction”. In addition, the “responding in the `conflict` session (percentage increase in square root of total lever presses in FR5)” value in experiment [4] is listed as “significant increase in responding in the `conflict` session”.

For `CCc1c(C)n(C)c2ccc(NC(=O)Nc3cccnc3)cc12` [E1, N-(1,2-Dimethyl-3-ethyl-1H-indol-5-yl)-N'-(3-pyridyl)urea hydrochloride], the antagonist dissociation constant (Kb) in experiment [1] stood at 0.032 µM. The compound further had a Ki on 5-HT1C binding site of 0.0251 µM.
